The record followed here is article PMC9743094, “Synthesis and Evaluation of Polymyxins Bearing Reductively Labile Disulfide-Linked Lipids” (Journal of Medicinal Chemistry, 2022).

In brackets after ≈: the same amount, converted by molar mass. Positions of bridges follow the written chain, without caps; N, C: chain ends. Non-standard residues stand in square brackets, D forms with d. Residues, ends and D or L forms follow the SMILES beside them. *: point of attachment. Phenylthio(4-OPh) = c1ccc(Oc2ccc(S*)cc2)cc1; S(3-Methylbutyl) = CC(C)CCS*; X6 = c1ccc(-c2ccc(S*)cc2)cc1; Dab = NCC[C@H](N)C(=O)O; X1 = CC(C)CCCCS*; X4 = CCCCCCS* Where only a bound is given, the exact number is not on record here.

Data set [1] deals with P. aeruginosa (ATCC 27853). It is filed as cell-based. As to conditions: ATCC 27853. How it is done: (§1) Minimum inhibitory concentrations (MICs) on relevant Gram-negative bacteria were determined by broth microdilution, in accordance with CLSI guidelines. Indicated bacteria were taken from glycerol stocks and incubated overnight on blood agar at 37 °C. Well-isolated colonies were taken, suspended in TSB (5 mL), and grown to an OD600 of 0.5. Compounds to be tested were dissolved in DMSO (6.4 mg/mL), diluted in cation-adjusted Mueller–Hinton Broth (CAMHB) (12.5 and 20 μg/mL Mg^2+ and Ca^2+, respectively), and diluted serially on polypropylene microtiter plates. To the diluted compounds (50 μL per well) was added 50 μL of relevant bacterial suspension, to yield a final concentration of 10^6 CFU/mL. Plates were covered by adhesive gas-permeable membranes and incubated at 37 °C. MIC was read out as the lowest concentration that inhibited visual bacterial growth. Shown values are consistent results from at least duplicate experiments.

Data set [2] has as its system K. pneumoniae (ATCC 13883). In kind it is cell-based. As to conditions: ATCC 13883. How it is done:
as §1

The test system of data set [3] is E. coli (ATCC 25922). In kind it is cell-based. Conditions: ATCC 25922. The protocol: as §1
Data set [4] deals with A. baumannii (ATCC 19606). In kind it is cell-based. Conditions: ATCC 19606. The protocol:
as §1

In data set [5] the test system is differentiated conditionally immortalized PTECs (ciPTECs, OAT-1). As to the kind of experiment: ciPTEC toxicity assay (PrestoBlue). In kind it is cell-based, human. How it is done: ciPTECs (OAT-1) cells,[52],[53] grown to 90–100% confluence, were washed by Hanks’ balanced salt solution (HBSS; Gibco, Life Technologies, Paisley, U.K.) and detached by accutase (4 mL) for 5 min at 37 °C. The cells were then suspended in fresh medium (DMEM/F-12, supplemented with 10% fetal calf serum, insulin (5 μg/mL), transferrin (5 μg/mL), selenium (5 μg/mL) hydrocortisone (35 ng/mL), Epidermal Growth Factor (10 ng/mL) and tri-iodothyronine (40 pg/mL)). Cell density was adjusted to 2.0 × 10^5 cells/mL, of which 100 μL was added to each well of a 96-well plate. The cells were incubated for 24 h at 33 °C, followed by 6 days at 37 °C, in a humidified atmosphere containing 5% (v/v) CO2. The medium was refreshed every second or third day.
Compounds were dissolved and serially diluted in serum-free medium. Differentiated cells were washed once with HBSS and serially diluted compounds (80 μL/well) were transferred to the ciPTEC-containing plate. Compounds were incubated for 24 h at 37 °C; the cells were washed by HBSS, followed by incubation with 10% PrestoBlue cell viability reagent (Thermo Scientific, Vienna, Austria) in HBSS at 37 °C in the dark. Fluorescence was recorded (excitation: 530 nm, emission: 590 nm). Raw data are corrected for PrestoBlue background fluorescence and reported relative to the no-treatment control (cells with medium only). Viability data were fitted with GraphPad Prism software (version 5.03; GraphPad Software, La Jolla, CA), by nonlinear regression with 0 as bottom constraint. Presented data are based on triplicates.
Toxicity assessment on PTECs
Table S1. TC50 values for polymyxin analogues. Toxicity assessment on proximal tubular epithelial cells
performed using PrestoBlue™ assay. TC50 values are derived after non-linear regression analysis on cell viability
correspond to data obtained from 2 different batches of cells/analyses on different days. As the value for
polymyxin B differs 2-fold, values in the manuscript are presented relative to the polymyxin B value.
Compound TC50 (µ M) Compound TC50 (µ M)
Polymyxin B 80 Polymyxin B 41
Figure S3. Representative traces of ciPTECs’ viability after incubation with analogues for 24 hours. Shown data are based on […]

Take `CC(C)CCCCSSC[C@H](N)C(=O)N[C@H](C(=O)N[C@@H](CCN)C(=O)N[C@H]1CCNC(=O)[C@H]([C@@H](C)O)NC(=O)[C@H](CCN)NC(=O)[C@H](CCN)NC(=O)[C@H](CC(C)C)NC(=O)[C@@H](Cc2ccccc2)NC(=O)[C@H](CCN)NC1=O)[C@@H](C)O` [Compound 20a] (H-C(X1)T[Dab][Dab][Dab][dF]L[Dab][Dab]T; lactam 4-C): the “MIC P. aeruginosa (ATCC 27853)” value in data set [1] worked out at 2 µg/mL (≈ 1.67 µM). Besides, the “MIC K. pneumoniae (ATCC 13883)” value in data set [2] is 1 µg/mL (≈ 0.836 µM). Further, the “MIC E. coli (ATCC 25922)” value in data set [3] turned out to be 2 µg/mL (≈ 1.67 µM). In addition, in data set [4], the “MIC A. baumannii (ATCC 19606)” value was 4 µg/mL (≈ 3.34 µM).
In the case of `CC(C)C[C@@H]1NC(=O)[C@@H](Cc2ccccc2)NC(=O)[C@H](CCN)NC(=O)[C@@H](NC(=O)[C@H](CCN)NC(=O)[C@@H](NC(=O)[C@@H](N)CSSc2ccc(Oc3ccccc3)cc2)[C@@H](C)O)CCNC(=O)[C@H]([C@@H](C)O)NC(=O)[C@H](CCN)NC(=O)[C@H](CCN)NC1=O` [Compound 30a] (H-C(Phenylthio(4-OPh))T[Dab][Dab][Dab][dF]L[Dab][Dab]T; lactam 4-C), in data set [1], the “MIC P. aeruginosa (ATCC 27853)” value was 4 µg/mL (≈ 3.16 µM). The “MIC K. pneumoniae (ATCC 13883)” value in data set [2] turned out to be 4 µg/mL (≈ 3.16 µM). For the same compound, the “MIC E. coli (ATCC 25922)” value in data set [3] worked out at 4 µg/mL (≈ 3.16 µM). The “MIC A. baumannii (ATCC 19606)” value in data set [4] is >32 µg/mL.
Regarding `CC(C)CCSSC[C@H](NC(=O)CN)C(=O)N[C@H](C(=O)N[C@@H](CCN)C(=O)N[C@H]1CCNC(=O)[C@H]([C@@H](C)O)NC(=O)[C@H](CCN)NC(=O)[C@H](CCN)NC(=O)[C@H](CC(C)C)NC(=O)[C@@H](Cc2ccccc2)NC(=O)[C@H](CCN)NC1=O)[C@@H](C)O` [Compound 22a] (H-GC(S(3-Methylbutyl))T[Dab][Dab][Dab][dF]L[Dab][Dab]T; lactam 5-C), in data set [5], the “TC50, Day 1” value is given as 305 µM and the “ciPTEC Toxicity Index (relative to polymyxin B)” value turned out to be 3.8. Besides, in data set [1], the “MIC P. aeruginosa (ATCC 27853)” value worked out at 2 µg/mL (≈ 1.63 µM). Moreover, the “MIC K. pneumoniae (ATCC 13883)” value in data set [2] was determined as 2 µg/mL (≈ 1.63 µM). Besides, the “MIC A. baumannii (ATCC 19606)” value in data set [4] worked out at 4 µg/mL (≈ 3.26 µM).
Take `CCCCCCSSC[C@H](NC(=O)CN)C(=O)N[C@H](C(=O)N[C@@H](CCN)C(=O)N[C@H]1CCNC(=O)[C@H]([C@@H](C)O)NC(=O)[C@H](CCN)NC(=O)[C@H](CCN)NC(=O)[C@H](CC(C)C)NC(=O)[C@@H](Cc2ccccc2)NC(=O)[C@H](CCN)NC1=O)[C@@H](C)O` [Compound 21a] (H-GC(X4)T[Dab][Dab][Dab][dF]L[Dab][Dab]T; lactam 5-C): the “MIC P. aeruginosa (ATCC 27853)” value in data set [1] worked out at 2 µg/mL (≈ 1.61 µM). Also, the “MIC K. pneumoniae (ATCC 13883)” value in data set [2] turned out to be 1 µg/mL (≈ 0.807 µM). Besides, the “MIC E. coli (ATCC 25922)” value in data set [3] worked out at 4 µg/mL (≈ 3.23 µM). For the same compound, the “MIC A. baumannii (ATCC 19606)” value in data set [4] was 2 µg/mL (≈ 1.61 µM).
Take `CC(C)C[C@@H]1NC(=O)[C@@H](Cc2ccccc2)NC(=O)[C@H](CCN)NC(=O)[C@@H](NC(=O)[C@H](CCN)NC(=O)[C@@H](NC(=O)[C@@H](CSSc2ccc(-c3ccccc3)cc2)NC(=O)CN)[C@@H](C)O)CCNC(=O)[C@H]([C@@H](C)O)NC(=O)[C@H](CCN)NC(=O)[C@H](CCN)NC1=O` [Compound 31b] (H-G[dC](X6)T[Dab][Dab][Dab][dF]L[Dab][Dab]T; lactam 5-C): the “MIC P. aeruginosa (ATCC 27853)” value in data set [1] amounted to 8 µg/mL (≈ 6.12 µM). Also, the “MIC K. pneumoniae (ATCC 13883)” value in data set [2] stood at 4 µg/mL (≈ 3.06 µM). Also, the “MIC E. coli (ATCC 25922)” value in data set [3] came out at 8 µg/mL (≈ 6.12 µM). For the same compound, the “MIC A. baumannii (ATCC 19606)” value in data set [4] is 16 µg/mL (≈ 12.2 µM).
`CC(C)C[C@@H]1NC(=O)[C@@H](Cc2ccccc2)NC(=O)[C@H](CCN)NC(=O)[C@@H](NC(=O)[C@H](CCN)NC(=O)[C@@H](N)[C@@H](C)O)CCNC(=O)[C@H]([C@@H](C)O)NC(=O)[C@H](CCN)NC(=O)[C@H](CCN)NC1=O` [PMBN, polymyxin B nonapeptide, reference compound] (H-T[Dab][Dab][Dab][dF]L[Dab][Dab]T; lactam 3-C): the “MIC P. aeruginosa (ATCC 27853)” value in data set [1] is >32 µg/mL. Further, the “MIC K. pneumoniae (ATCC 13883)” value in data set [2] was >32 µg/mL. For the same compound, the “MIC E. coli (ATCC 25922)” value in data set [3] is >32 µg/mL. The “MIC A. baumannii (ATCC 19606)” value in data set [4] is >32 µg/mL.
